Test results: US6737383B1, “Herbicidal oxadiazolidines” (priority 1999, dated 2004)

How the values were obtained:
smallflower flatsedge = test: Test B flood test smallflower flatsedge; assay type: in vivo, Cyperus difformis
Summary of the method: (§1)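 Read-out is a visual response score from 0 (no effect) to 10 (complete control), assigned by comparison with untreated controls. Treatment was applied at the 2-leaf stage, and plants stayed in the greenhouse for twelve to sixteen days before scoring.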

duck salad = test: Test B flood test duck salad; assay type: in vivo, Heteranthera limosa
Summary of the method: as §1

rape = test: Test B pre/postemergence rape; assay type: in vivo, Brassica napus
Summary of the method: (§2)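 Test chemicals in a non-phytotoxic solvent mixture with surfactant were sprayed preemergence onto planted seeds and postemergence onto plants 2 to 18 cm tall (1- to 4-leaf stage). After twelve to sixteen days in a greenhouse, injury was visually rated against untreated controls from 0 (no effect) to 10 (complete control).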

morningglory = test: Test B pre/postemergence morningglory; assay type: in vivo, Ipomoea hederacea
Summary of the method: as §2

velvetleaf = test: Test B pre/postemergence velvetleaf; assay type: in vivo, Abutilon theophrasti
Summary of the method: as §2

blackgrass = test: Test B pre/postemergence blackgrass; assay type: in vivo, Alopecurus myosuroides
Summary of the method: as §2

giant foxtail = test: Test B pre/postemergence giant foxtail; assay type: in vivo, Setaria faberii
Summary of the method: as §2

soybean = test: Test B pre/postemergence soybean; assay type: in vivo, Glycine max
Summary of the method: as §2

rice = test: Test B flood test rice; assay type: in vivo, Oryza sativa
Summary of the method: as §1

wheat = test: Test B pre/postemergence wheat; assay type: in vivo, Triticum aestivum
Summary of the method: as §2

cocklebur = test: Test B pre/postemergence cocklebur; assay type: in vivo, Xanthium strumarium
Summary of the method: as §2

bamyardgrass = test: Test B flood test barnyardgrass; assay type: in vivo, Echinochloa crus-galli
Summary of the method: as §1

wild oat = test: Test B pre/postemergence wild oat; assay type: in vivo, Avena fatua
Summary of the method: as §2

purple nutsedge = test: Test B pre/postemergence purple nutsedge; assay type: in vivo, Cyperus rotundus
Summary of the method: as §2

pigweed = test: Test B pre/postemergence pigweed; assay type: in vivo, Amaranthus retroflexus
Summary of the method: as §2

sugar beet = test: Test B pre/postemergence sugar beet; assay type: in vivo, Beta vulgaris
Summary of the method: as §2

[1] = Rate 62 g/ha, headed Pre-emergence (flood test species), scale 0 to 10 (0 no effect, 10 complete control)
[2] = Rate 125 g/ha, Pre-emergence, flood test species, scale 0 to 10 where 0 is no effect and 10 is complete control
[3] = Rate 250 g/ha, Pre-emergence, flood-test species, scale 0 to 10, 0 is no effect, 10 is complete control
[4] = Rate 500 g/ha, Pre-emergence, flood test species, scale 0 to 10 (0 no effect, 10 complete control)
[5] = Preemergence, Rate 62 g/ha, scale of 0 to 10 where 0 is no effect and 10 is complete control
[6] = Preemergence, Rate 250 g/ha, scale of 0 to 10 where 0 is no effect and 10 is complete control
[7] = Preemergence, Rate 500 g/ha, scale of 0 to 10 where 0 is no effect and 10 is complete control
[8] = Rate 62 g/ha, Postemergence, scale 0 to 10 (0 no effect, 10 complete control)
[9] = Rate 125 g/ha, Postemergence, scale of 0 to 10 where 0 is no effect and 10 is complete control
[10] = Rate 250 g/ha, Postemergence, scale of 0 to 10 where 0 is no effect and 10 is complete control
[11] = Rate 500 g/ha, Postemergence, scale 0 to 10, 0 no effect, 10 complete control
[12] = Pre-emergence, Rate 1000 g/ha, scale 0 to 10 (0 no effect, 10 complete control)

CCc1cccc(CC)c1-n1c(=O)on(C(=O)N(c2ccc(F)cc2)C(C)C)c1=O [Compound 304]
S. Flatsedge plant response rating (smallflower flatsedge; [1]): 0
S. Flatsedge plant response rating (smallflower flatsedge; [2]): 0
S. Flatsedge plant response rating (smallflower flatsedge; [3]): 0
S. Flatsedge plant response rating (smallflower flatsedge; [4]): 0
Ducksalad plant response rating (duck salad; [1]): 0
Ducksalad plant response rating (duck salad; [2]): 0
Ducksalad plant response rating (duck salad; [3]): 0
Ducksalad plant response rating (duck salad; [4]): 0
Rape plant response rating (rape; [5]): 0
Rape plant response rating (0 to 10 scale) (rape; Preemergence, Rate 125 g/ha): 0
Rape plant response rating (rape; [6]): 0
Rape plant response rating (rape; [7]): 0
Rape plant response rating (rape; [8]): 0
Rape plant response rating (rape; [9]): 0
Plant response rating, Rape (rape; [10]): 0
Morningglory plant response rating (morningglory; [5]): 0
Morningglory plant response rating (0 to 10 scale) (morningglory; Preemergence, Rate 125 g/ha): 0
Morningglory plant response rating (morningglory; [6]): 0
Morningglory plant response rating (morningglory; [7]): 0
Morningglory plant response rating (morningglory; [8]): 3
Morningglory plant response rating (morningglory; [9]): 3
Plant response rating, Morningglory (morningglory; [10]): 3
Velvetleaf plant response rating (velvetleaf; [5]): 0
Velvetleaf plant response rating (0 to 10 scale) (velvetleaf; Preemergence, Rate 125 g/ha): 0
Velvetleaf plant response rating (velvetleaf; [6]): 0
Velvetleaf plant response rating (velvetleaf; [7]): 0
Velvetleaf plant response rating (velvetleaf; [8]): 0
Velvetleaf plant response rating (velvetleaf; [9]): 0
Plant response rating, Velvetleaf (velvetleaf; [10]): 0
Blackgrass plant response rating (blackgrass; [5]): 0
Blackgrass plant response rating (0 to 10 scale) (blackgrass; Preemergence, Rate 125 g/ha): 0
Blackgrass plant response rating (blackgrass; [6]): 0
Blackgrass plant response rating (blackgrass; [7]): 0
Blackgrass plant response rating (blackgrass; [8]): 0
Blackgrass plant response rating (blackgrass; [9]): 0
Plant response rating, Blackgrass (blackgrass; [10]): 0
Blackgrass plant response rating (blackgrass; [11]): 4
Giant foxtail plant response rating (giant foxtail; [5]): 0
Giant foxtail plant response rating (0 to 10 scale) (giant foxtail; Preemergence, Rate 125 g/ha): 4
Giant foxtail plant response rating (giant foxtail; [6]): 6
Giant foxtail plant response rating (giant foxtail; [7]): 6
Giant foxtail plant response rating (giant foxtail; [8]): 0
Giant foxtail plant response rating (giant foxtail; [9]): 0
Plant response rating, Giant foxtail (giant foxtail; [10]): 0
Soybean plant response rating (soybean; [5]): 0
Soybean plant response rating (0 to 10 scale) (soybean; Preemergence, Rate 125 g/ha): 0
Soybean plant response rating (soybean; [6]): 0
Soybean plant response rating (soybean; [7]): 0
Soybean plant response rating (soybean; [8]): 3
Soybean plant response rating (soybean; [9]): 4
Plant response rating, Soybean (soybean; [10]): 5
Rice plant response rating (rice; [1]): 0
Rice plant response rating (rice; [2]): 0
Rice plant response rating (rice; [3]): 0
Rice plant response rating (rice; [4]): 0
Wheat plant response rating (wheat; [5]): 0
Wheat plant response rating (0 to 10 scale) (wheat; Preemergence, Rate 125 g/ha): 0
Wheat plant response rating (wheat; [6]): 0
Wheat plant response rating (wheat; [7]): 0
Wheat plant response rating (wheat; [8]): 0
Wheat plant response rating (wheat; [9]): 0
Plant response rating, Wheat (wheat; [10]): 0
Cocklebur plant response rating (0 to 10 scale) (cocklebur; Preemergence, Rate 125 g/ha): 0
Cocklebur plant response rating (cocklebur; [6]): 0
Cocklebur plant response rating (cocklebur; [7]): 0
Cocklebur plant response rating (cocklebur; [8]): 0
Cocklebur plant response rating (cocklebur; [9]): 0
Plant response rating, Cocklebur (cocklebur; [10]): 0
Cocklebur plant response rating (cocklebur; [11]): 0
Barnyardgrass plant response rating (bamyardgrass; [1]): 0
Barnyardgrass plant response rating (bamyardgrass; [2]): 0
Barnyardgrass plant response rating (bamyardgrass; [3]): 0
Barnyardgrass plant response rating (bamyardgrass; [4]): 4
Wild oats plant response rating (wild oat; [5]): 0
Wild oats plant response rating (0 to 10 scale) (wild oat; Preemergence, Rate 125 g/ha): 0
Wild oats plant response rating (wild oat; [6]): 0
Wild oats plant response rating (wild oat; [7]): 0
Wild oats plant response rating (wild oat; [8]): 0
Wild oats plant response rating (wild oat; [9]): 0
Plant response rating, Wild oats (wild oat; [10]): 0
Nutsedge plant response rating (purple nutsedge; [5]): 0
Nutsedge plant response rating (0 to 10 scale) (purple nutsedge; Preemergence, Rate 125 g/ha): 0
Nutsedge plant response rating (purple nutsedge; [6]): 0
Nutsedge plant response rating (purple nutsedge; [7]): 0
Nutsedge plant response rating (purple nutsedge; [8]): 0
Nutsedge plant response rating (purple nutsedge; [9]): 0
Plant response rating, Nutsedge (purple nutsedge; [10]): 0
Redroot pigweed plant response rating (pigweed; [5]): 0
Redroot pigweed plant response rating (0 to 10 scale) (pigweed; Preemergence, Rate 125 g/ha): 0
Redroot pigweed plant response rating (pigweed; [6]): 0
Redroot pigweed plant response rating (pigweed; [7]): 0
Redroot pigweed plant response rating (pigweed; [8]): 3
Redroot pigweed plant response rating (pigweed; [9]): 3
Plant response rating, Redroot pigweed (pigweed; [10]): 5
Sugarbeets plant response rating (sugar beet; [5]): 0
Sugarbeets plant response rating (0 to 10 scale) (sugar beet; Preemergence, Rate 125 g/ha): 1
Sugarbeets plant response rating (sugar beet; [6]): 6
Sugarbeets plant response rating (sugar beet; [7]): 6
Sugarbeets plant response rating (sugar beet; [8]): 0
Sugarbeets plant response rating (sugar beet; [9]): 0
Plant response rating, Sugarbeets (sugar beet; [10]): 0

CCN(C(=O)n1oc(=O)n(C(C)C)c1=O)C1CCCCC1 [Compound 309]
S. Flatsedge plant response rating (smallflower flatsedge; [12]): 0
S. Flatsedge plant response rating (smallflower flatsedge; [2]): 0
S. Flatsedge plant response rating (smallflower flatsedge; [3]): 0
S. Flatsedge plant response rating (smallflower flatsedge; [4]): 0
Ducksalad plant response rating (duck salad; [12]): 0
Ducksalad plant response rating (duck salad; [2]): 0
Ducksalad plant response rating (duck salad; [3]): 0
Ducksalad plant response rating (duck salad; [4]): 0
Rape plant response rating (rape; [5]): 0
Rape plant response rating (0 to 10 scale) (rape; Preemergence, Rate 125 g/ha): 0
Rape plant response rating (rape; [6]): 0
Rape plant response rating (rape; [7]): 0
Rape plant response rating (rape; [8]): 0
Rape plant response rating (rape; [9]): 0
Plant response rating, Rape (rape; [10]): 0
Morningglory plant response rating (morningglory; [5]): 0
Morningglory plant response rating (0 to 10 scale) (morningglory; Preemergence, Rate 125 g/ha): 0
Morningglory plant response rating (morningglory; [6]): 0
Morningglory plant response rating (morningglory; [7]): 0
Morningglory plant response rating (morningglory; [8]): 1
Morningglory plant response rating (morningglory; [9]): 1
Plant response rating, Morningglory (morningglory; [10]): 2
Velvetleaf plant response rating (velvetleaf; [5]): 0
Velvetleaf plant response rating (0 to 10 scale) (velvetleaf; Preemergence, Rate 125 g/ha): 0
Velvetleaf plant response rating (velvetleaf; [6]): 0
Velvetleaf plant response rating (velvetleaf; [7]): 2
Velvetleaf plant response rating (velvetleaf; [8]): 0
Velvetleaf plant response rating (velvetleaf; [9]): 0
Plant response rating, Velvetleaf (velvetleaf; [10]): 0
Blackgrass plant response rating (blackgrass; [5]): 0
Blackgrass plant response rating (0 to 10 scale) (blackgrass; Preemergence, Rate 125 g/ha): 0
Blackgrass plant response rating (blackgrass; [6]): 2
Blackgrass plant response rating (blackgrass; [7]): 6
Blackgrass plant response rating (blackgrass; [8]): 0
Blackgrass plant response rating (blackgrass; [9]): 0
Plant response rating, Blackgrass (blackgrass; [10]): 0
Blackgrass plant response rating (blackgrass; [11]): 2
Giant foxtail plant response rating (giant foxtail; [5]): 5
Giant foxtail plant response rating (0 to 10 scale) (giant foxtail; Preemergence, Rate 125 g/ha): 9
Giant foxtail plant response rating (giant foxtail; [6]): 9
Giant foxtail plant response rating (giant foxtail; [7]): 9
Giant foxtail plant response rating (giant foxtail; [8]): 0
Giant foxtail plant response rating (giant foxtail; [9]): 0
Plant response rating, Giant foxtail (giant foxtail; [10]): 0
Soybean plant response rating (soybean; [5]): 0
Soybean plant response rating (0 to 10 scale) (soybean; Preemergence, Rate 125 g/ha): 0
Soybean plant response rating (soybean; [6]): 0
Soybean plant response rating (soybean; [7]): 0
Soybean plant response rating (soybean; [8]): 2
Soybean plant response rating (soybean; [9]): 2
Plant response rating, Soybean (soybean; [10]): 2
Rice plant response rating (rice; [12]): 0
Rice plant response rating (rice; [2]): 0
Rice plant response rating (rice; [3]): 0
Rice plant response rating (rice; [4]): 0
Wheat plant response rating (wheat; [5]): 0
Wheat plant response rating (0 to 10 scale) (wheat; Preemergence, Rate 125 g/ha): 0
Wheat plant response rating (wheat; [6]): 0
Wheat plant response rating (wheat; [7]): 0
Wheat plant response rating (wheat; [8]): 0
Wheat plant response rating (wheat; [9]): 0
Plant response rating, Wheat (wheat; [10]): 0
Cocklebur plant response rating (cocklebur; [5]): 0
Cocklebur plant response rating (0 to 10 scale) (cocklebur; Preemergence, Rate 125 g/ha): 0
Cocklebur plant response rating (cocklebur; [6]): 0
Cocklebur plant response rating (cocklebur; [7]): 0
Cocklebur plant response rating (cocklebur; [8]): 0
Cocklebur plant response rating (cocklebur; [9]): 0
Plant response rating, Cocklebur (cocklebur; [10]): 0
Cocklebur plant response rating (cocklebur; [11]): 0
Barnyardgrass plant response rating (bamyardgrass; [12]): 0
Barnyardgrass plant response rating (bamyardgrass; [2]): 0
Barnyardgrass plant response rating (bamyardgrass; [3]): 0
Barnyardgrass plant response rating (bamyardgrass; [4]): 0
Wild oats plant response rating (wild oat; [5]): 0
Wild oats plant response rating (0 to 10 scale) (wild oat; Preemergence, Rate 125 g/ha): 0
Wild oats plant response rating (wild oat; [6]): 0
Wild oats plant response rating (wild oat; [7]): 2
Wild oats plant response rating (wild oat; [8]): 0
Wild oats plant response rating (wild oat; [9]): 0
Plant response rating, Wild oats (wild oat; [10]): 0
Nutsedge plant response rating (purple nutsedge; [5]): 0
Nutsedge plant response rating (0 to 10 scale) (purple nutsedge; Preemergence, Rate 125 g/ha): 0
Nutsedge plant response rating (purple nutsedge; [6]): 0
Nutsedge plant response rating (purple nutsedge; [7]): 0
Nutsedge plant response rating (purple nutsedge; [8]): 0
Nutsedge plant response rating (purple nutsedge; [9]): 0
Plant response rating, Nutsedge (purple nutsedge; [10]): 0
Redroot pigweed plant response rating (pigweed; [5]): 0
Redroot pigweed plant response rating (0 to 10 scale) (pigweed; Preemergence, Rate 125 g/ha): 0
Redroot pigweed plant response rating (pigweed; [6]): 0
Redroot pigweed plant response rating (pigweed; [7]): 2
Redroot pigweed plant response rating (pigweed; [8]): 0
Redroot pigweed plant response rating (pigweed; [9]): 0
Plant response rating, Redroot pigweed (pigweed; [10]): 0
Sugarbeets plant response rating (sugar beet; [5]): 0
Sugarbeets plant response rating (0 to 10 scale) (sugar beet; Preemergence, Rate 125 g/ha): 0
Sugarbeets plant response rating (sugar beet; [6]): 0
Sugarbeets plant response rating (sugar beet; [7]): 0
Sugarbeets plant response rating (sugar beet; [8]): 0
Sugarbeets plant response rating (sugar beet; [9]): 0
Plant response rating, Sugarbeets (sugar beet; [10]): 0
